Experiments:
Assay in all cases: drug sensitivity score (DSS) from 5-dose viability curve (DSS (area-based score, 0 = no response)); higher = more sensitive (stronger viability inhibition); extreme values may be limits of the assay
[1] = test system: MDCK wild-type - doxycycline; conditions: doxycycline: none; 72 h
In short: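 Viability of parental MDCK cells cultured without doxycycline was measured by CellTiter-Glo luminescence and scaled per plate between vehicle and positive controls. The cells had been exposed for 72 h to an oncology library of 528 drugs at five doses (1-10,000 nM). Drug sensitivity scores were calculated from dose-response curve fits in the Breeze pipeline.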

[2] = test system: MDCK p60AmotL2-inducible + doxycycline (p60AmotL2 expressing); conditions: doxycycline: 10 ng/mL; 72 h
In short: (§1)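 Pre-spotted 384-well plates held 528 oncology drugs, each at five doses from 1 to 10,000 nM. Parental and doxycycline-inducible MDCK cells, exposed beforehand to 10 ng/mL doxycycline in the medium, were added at 2000 cells/well and incubated 72 h at 37 °C. Viability came from CellTiter-Glo luminescence normalized per plate to vehicle and positive controls, and the Breeze pipeline fitted dose-response curves to give drug sensitivity scores.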

[3] = test system: MDCK wild-type + doxycycline; conditions: doxycycline: 10 ng/mL; 72 h
In short: as §1

COc1cc(C)c(/C=C/C(C)=C/C=C/C(C)=C/C(=O)O)c(C)c1C [Acitretin]
drug sensitivity score [1]: 3.6 | drug sensitivity score [2]: 0 | drug sensitivity score [3]: 0

CC(C)NC(=O)COc1cccc(-c2nc(Nc3ccc4[nH]ncc4c3)c3ccccc3n2)c1 [KD025]
drug sensitivity score [1]: 0.8 | drug sensitivity score [2]: 0 | drug sensitivity score [3]: 0

Cc1cnc(Nc2ccc(OCCN3CCCC3)cc2)nc1Nc1cccc(S(=O)(=O)NC(C)(C)C)c1 [Fedratinib]
drug sensitivity score [1]: 6 | drug sensitivity score [2]: 6.9 | drug sensitivity score [3]: 5.7

COCC1(CO)C(=O)C2CCN1CC2 (stereo not given) [APR-246]
drug sensitivity score [1]: 0 | drug sensitivity score [2]: 0 | drug sensitivity score [3]: 0

O=C(O)CC1CC(c2ccccc2)=NO1 (stereo not given) [VGX-1027]
drug sensitivity score [1]: 0 | drug sensitivity score [2]: 0 | drug sensitivity score [3]: 0

CNC(=O)[C@@H](NC(=O)[C@H](CC(C)C)[C@H](O)C(=O)NO)C(C)(C)C [Marimastat]
drug sensitivity score [1]: 0 | drug sensitivity score [2]: 3.5 | drug sensitivity score [3]: 0.1

Nc1ccccc1NC(=O)c1ccc(CNC(=O)OCc2cccnc2)cc1 [Entinostat]
drug sensitivity score [1]: 5.4 | drug sensitivity score [2]: 4.4 | drug sensitivity score [3]: 5.5

CN(C(=O)c1ccc(F)cc1C(F)(F)F)C1CCN(c2nnc(-c3ccnn3C)c3ccccc23)CC1 [Taladegib]
drug sensitivity score [1]: 0 | drug sensitivity score [2]: 0 | drug sensitivity score [3]: 0

CCNc1nc(Nc2cc(F)c(C(=O)N3CCOCC3)cc2OC)ncc1C(F)(F)F [GNE-7915]
drug sensitivity score [1]: 0 | drug sensitivity score [2]: 0 | drug sensitivity score [3]: 0

Cc1c(-c2ccc(N3CCc4cccc(C(=O)Nc5nc6ccccc6s5)c4C3)nc2C(=O)O)cnn1CC12CC3CC(CC(C3)C1)C2
drug sensitivity score [1]: 0 | drug sensitivity score [2]: 0 | drug sensitivity score [3]: 0

COCC[n+]1c2c(n(Cc3cnccn3)c1C)C(=O)c1ccccc1C2=O [Sepantronium bromide]
drug sensitivity score [1]: 26.6 | drug sensitivity score [2]: 34.3 | drug sensitivity score [3]: 30.1

C[C@H]1CNCCCN1S(=O)(=O)c1cccc2cncc(F)c12 [Ripasudil]
drug sensitivity score [1]: 0 | drug sensitivity score [2]: 0 | drug sensitivity score [3]: 0

CC(=O)c1cc2c(o1)C(=O)c1ccccc1C2=O [Napabucasin]
drug sensitivity score [1]: 18.3 | drug sensitivity score [2]: 18.1 | drug sensitivity score [3]: 18.5

C=C1C[C@@H]2CC[C@@]34C[C@H]5O[C@H]6[C@@H](O3)[C@H]3O[C@H](CC[C@@H]3O[C@H]6[C@H]5O4)CC(=O)C[C@@H]3[C@@H](OC)[C@@H](C[C@H](O)CN)O[C@H]3C[C@H]3O[C@@H](CC[C@@H]1O2)C[C@@H](C)C3=C [Eribulin]
drug sensitivity score [1]: 17.3 | drug sensitivity score [2]: 23.4 | drug sensitivity score [3]: 22.5

Cc1c(F)cc(C(=O)NC2CC2)cc1-c1ccc(C(=O)NCC(C)(C)C)cn1 [Losmapimod]
drug sensitivity score [1]: 0 | drug sensitivity score [2]: 0 | drug sensitivity score [3]: 0

Cn1nnc2c(C(N)=O)ncn2c1=O [Temozolomide]
drug sensitivity score [1]: 0 | drug sensitivity score [2]: 0 | drug sensitivity score [3]: 0

COc1ccc2[nH]cc(/C=C3\C(=O)Nc4ccc(NC(=O)CCN5CCCCC5)cc43)c2c1
drug sensitivity score [1]: 6 | drug sensitivity score [2]: 9.4 | drug sensitivity score [3]: 7.3

O=C(O)CCCCC(CCSCc1ccccc1)SCc1ccccc1 (stereo not given) [CPI-613]
drug sensitivity score [1]: 0 | drug sensitivity score [2]: 0 | drug sensitivity score [3]: 0

COc1cc(N2CCC(N3CCN(C)CC3)CC2)ccc1Nc1ncc(Cl)c(Nc2ccccc2P(C)(C)=O)n1 [Brigatinib]
drug sensitivity score [1]: 4.1 | drug sensitivity score [2]: 5.2 | drug sensitivity score [3]: 2.6

COc1cc2c(NC3CCN(C(C)C)CC3)nc(C3CCCCC3)nc2cc1OCCCN1CCCC1 [UNC0638]
drug sensitivity score [1]: 5.2 | drug sensitivity score [2]: 5 | drug sensitivity score [3]: 5.3

CC[C@@H]1C(=O)N(C)c2cnc(Nc3ccc(C(=O)N[C@H]4CC[C@H](N5CCN(CC6CC6)CC5)CC4)cc3OC)nc2N1C(C)C [Volasertib]
drug sensitivity score [1]: 16.6 | drug sensitivity score [2]: 17.4 | drug sensitivity score [3]: 15.3

C[C@@H]1CCN(C(=O)CC#N)C[C@@H]1N(C)c1ncnc2[nH]ccc12 [Tofacitinib]
drug sensitivity score [1]: 0 | drug sensitivity score [2]: 0 | drug sensitivity score [3]: 0

Oc1nc(-c2ccc(C(F)(F)F)cc2)nc2c1CSCC2 [XAV-939]
drug sensitivity score [1]: 0 | drug sensitivity score [2]: 0 | drug sensitivity score [3]: 0

C[C@H]1C[C@@H](n2c(Nc3ccc(OC(F)(F)F)cc3)nc3cc(CCC(=O)O)ccc32)CC(C)(C)C1
drug sensitivity score [1]: 0 | drug sensitivity score [2]: 0 | drug sensitivity score [3]: 0

C=CC(=O)Nc1cccc(Nc2nc(Nc3ccc(OCCOC)cc3)ncc2F)c1 [Spebrutinib]
drug sensitivity score [1]: 0 | drug sensitivity score [2]: 0.8 | drug sensitivity score [3]: 0

CCN(CC)CCN(Cc1ccc(-c2ccc(C(F)(F)F)cc2)cc1)C(=O)Cn1c(SCc2ccc(F)cc2)nc(=O)c2c1CCC2 [Darapladib]
drug sensitivity score [1]: 0 | drug sensitivity score [2]: 0 | drug sensitivity score [3]: 0

Cc1cccc(CC(=O)N2CCc3c2ccc(-c2cn(C)c4ncnc(N)c24)c3F)n1
drug sensitivity score [1]: 0 | drug sensitivity score [2]: 0 | drug sensitivity score [3]: 0

Cc1sc2c(c1C)C(c1ccc(Cl)cc1)=N[C@@H](CC(=O)Nc1ccc(OCCOCCOCCOCCNc3cccc4c3C(=O)N(C3CCC(=O)NC3=O)C4=O)cc1)c1nnc(C)n1-2 (stereo not given in full) [ARV-825]
drug sensitivity score [1]: 5.5 | drug sensitivity score [2]: 11.2 | drug sensitivity score [3]: 7.3

CCNC(=O)C[C@@H]1N=C(c2ccc(Cl)cc2)c2cc(OC)ccc2-n2c(C)nnc21 [Molibresib]
drug sensitivity score [1]: 0.9 | drug sensitivity score [2]: 9.5 | drug sensitivity score [3]: 2.9

O=c1sn(-c2cccc3ccccc23)c(=O)n1Cc1ccccc1 [Tideglusib]
drug sensitivity score [1]: 0 | drug sensitivity score [2]: 0 | drug sensitivity score [3]: 0

O=C(CCCCCCNC(=O)c1cnc(N(c2ccccc2)c2ccccc2)nc1)NO [Rocilinostat]
drug sensitivity score [1]: 4.5 | drug sensitivity score [2]: 7.2 | drug sensitivity score [3]: 4.9

Cc1c(N)nc([C@H](CC(N)=O)NC[C@H](N)C(N)=O)nc1C(=O)N[C@H](C(=O)N[C@H](C)[C@@H](O)[C@H](C)C(=O)N[C@H](C(=O)NCCc1nc(-c2nc(C(=O)NCCC[S+](C)C)cs2)cs1)[C@@H](C)O)[C@@H](OC1OC(CO)C(O)C(O)C1OC1OC(CO)C(O)C(OC(N)=O)C1O)c1cnc[nH]1 (stereo not given in full) [Bleomycin]
drug sensitivity score [1]: 0 | drug sensitivity score [2]: 0.6 | drug sensitivity score [3]: 0

CC(C)C(=O)Nc1ccc([N+](=O)[O-])c(C(F)(F)F)c1 [Flutamide]
drug sensitivity score [1]: 0 | drug sensitivity score [2]: 0 | drug sensitivity score [3]: 0

CO[C@@]12[C@H](COC(N)=O)C3=C(C(=O)C(C)=C(N)C3=O)N1C[C@@H]1N[C@@H]12 [Mitomycin C]
drug sensitivity score [1]: 1.2 | drug sensitivity score [2]: 0 | drug sensitivity score [3]: 0

CNC(=O)c1nn(C)c2c1C(C)(C)Cc1cnc(Nc3ccc(N4CCN(C)CC4)cc3)nc1-2 [Milciclib]
drug sensitivity score [1]: 12.4 | drug sensitivity score [2]: 13.2 | drug sensitivity score [3]: 14.5

Cn1c(Nc2ccc(C(F)(F)F)cc2)nc2cc(Oc3ccnc(-c4ncc(C(F)(F)F)[nH]4)c3)ccc21 [NVP-RAF265]
drug sensitivity score [1]: 0 | drug sensitivity score [2]: 0 | drug sensitivity score [3]: 0

Nc1nc(Cl)nc2c1ncn2[C@H]1C[C@H](O)[C@@H](CO)O1 [Cladribine]
drug sensitivity score [1]: 1.2 | drug sensitivity score [2]: 2.3 | drug sensitivity score [3]: 2.3

COc1cccc2c1c(O)c(C(=O)N(C)c1ccc(C(F)(F)F)cc1)c(=O)n2C [Tasquinimod]
drug sensitivity score [1]: 0 | drug sensitivity score [2]: 0 | drug sensitivity score [3]: 0

C=CC(=O)Nc1cccc(Oc2nc(Nc3ccc(N4CCN(C)CC4)cc3)nc3ccsc23)c1 [Olmutinib]
drug sensitivity score [1]: 0 | drug sensitivity score [2]: 1.5 | drug sensitivity score [3]: 0

Cc1ccc(NC(=O)c2ccc(CN3CCN(C)CC3)cc2)cc1Nc1nc(-c2cccnc2)cs1 [Masitinib]
drug sensitivity score [1]: 5.7 | drug sensitivity score [2]: 5.3 | drug sensitivity score [3]: 8.2

CS(=O)(=O)CCNCc1ccc(-c2ccc3ncnc(Nc4ccc(OCc5cccc(F)c5)c(Cl)c4)c3c2)o1 [Lapatinib]
drug sensitivity score [1]: 0.9 | drug sensitivity score [2]: 6.8 | drug sensitivity score [3]: 0

COc1cc2c(N3CCN(C(=O)Nc4ccc(OC(C)C)cc4)CC3)ncnc2cc1OCCCN1CCCCC1 [Tandutinib]
drug sensitivity score [1]: 0 | drug sensitivity score [2]: 0 | drug sensitivity score [3]: 0

Nc1ccccc1NC(=O)c1ccc(CNc2nccc(-c3cccnc3)n2)cc1 [Mocetinostat]
drug sensitivity score [1]: 8.1 | drug sensitivity score [2]: 6.2 | drug sensitivity score [3]: 8.4

O=c1[nH]cc(F)c(=O)[nH]1 [Fluorouracil]
drug sensitivity score [1]: 8.6 | drug sensitivity score [2]: 9.2 | drug sensitivity score [3]: 9.7

CCOC(=O)CCNc1cc(N2CCc3ccccc3CC2)nc(-c2ccccn2)n1 [GSK-J4]
drug sensitivity score [1]: 13.7 | drug sensitivity score [2]: 3.9 | drug sensitivity score [3]: 3.8

— the supplement of paper PMC11003180
